From EP1632243A1 (priority 2003, dated 2004) come the findings set out here.

Converted amounts (≈) assume the structure as drawn. Read-outs that look alike come from different tables or passages of the source. Residues, ends and D or L forms follow the SMILES beside them.

One data set concerns MT-4 cells. The data set can be described thus: Cytotoxicity to MT-4 cells, MTT method. It is filed as cell-based. The conditions noted are these: 12000ng/ml to 24ng/ml, 6 days. On the procedure: Then test drugs were added. […] Cell growth was subsequently determined by the MTT method.
The next data set is described as follows: in vitro. The conditions noted are these: human, 293 cells.

For the compound `CC(C)C[C@H](NC(=O)[C@H](CCCCN)NC(=O)[C@@H](N)Cc1ccc(O)cc1)C(=O)N1CCC[C@H]1C(=O)NCC(=O)N[C@@H](Cc1c[nH]cn1)C(=O)N[C@@H](Cc1c[nH]cn1)C(=O)N[C@@H](Cc1c[nH]cn1)C(=O)N[C@@H](Cc1c[nH]cn1)C(=O)N[C@@H](Cc1ccc(O)cc1)C(=O)N[C@@H](CCCNC(=N)N)C(=O)N1CCC[C@H]1C(=O)O` [AP-9] (H-YKLPGHHHHYRP-OH; N-terminus and C-terminus assumed), in the data set on No.04 coronavirus, the “inhibition of coronavirus in 293 cell cultures” value (shortened to “inhibition of coronavirus”) was “capable of inhibiting coronavirus” and the “treatment index (TI)” value is on record as 32. Moreover, in the data set on No.04 coronavirus (24 h), the “half-inhibitory concentration (IC50)” value turned out to be 15.6 ± 0 µg/mL and the “minimum inhibitory concentration (MIC)” value was 31.3 ± 0 µg/mL (≈ 0.0203 mM). Further, in the data set on MT-4 cells, the cell growth entry is “not affected”.
A word on the CC50: it is the concentration giving 50% cytotoxicity. A higher CC50 goes with lower toxicity to the cells. As for `Nc1nc(O)c2ncn(COC(CO)CO)c2n1` [Ganciclovir, ganciclovir], in the data set “in vitro”, the 50% cytotoxic concentration (CC50) at 144 h is > 6000 µg/mL and the MNTC at 144 h was > 6000 µg/mL.
“AP-1: high-affinity peptide antagonist targeting HAb18G/CD147, amino acid sequence SEQ ID NO:3 (MTHDPVISLPTT)”: in the data set with No.04 coronavirus, the “half-inhibitory concentration (IC50)” value amounted to 31.25 ± 0 µg/mL, the “inhibition of coronavirus” value was “capable of inhibiting coronavirus”, the “minimum inhibitory concentration (MIC)” value turned out to be 62.25 ± 0 µg/mL and the “treatment index (TI)” value is reported as 16. For the same compound, in the data set on MT-4 cells, the cell growth result is “not affected”.
“AP-6: high-affinity peptide antagonist targeting HAb18G/CD147, amino acid sequence SEQ ID NO:8 (YPFHHKHWHRPN)”: in the data set with No.04 coronavirus, the “half-inhibitory concentration (IC50)” value came out at 31.25 ± 0 µg/mL, the “inhibition of coronavirus” value is given as “capable of inhibiting coronavirus”, the “minimum inhibitory concentration (MIC)” value was found to be 62.25 ± 0 µg/mL and the “treatment index (TI)” value stood at 16. In addition, the cell growth entry with MT-4 cells is “not affected”.
